# Laboratory results taken from patent US10670605B2, “Cysteine reactive probes and uses thereof” (The Scripps Research Institute, priority 2015, dated 2020).
# Legend:
# Experiment in all cases: Competitive isoTOP-ABPP, cell lysates
# Assay type in all cases: binding
# ACAT1 C196 (P24752) = molecular target: T1, ACAT1 C196 (P24752) (Homo sapiens, UniProt P24752); settings: for isoTOP-ABPP reactivity profile ratio, P24752_C196 / isoTOP-ABPP reactivity ratio, P24752_C196: 500 μm; for isoTOP-ABPP ratio, P24752_C196: 500 μM, invitro
# T1 sequence (P24752 34-427): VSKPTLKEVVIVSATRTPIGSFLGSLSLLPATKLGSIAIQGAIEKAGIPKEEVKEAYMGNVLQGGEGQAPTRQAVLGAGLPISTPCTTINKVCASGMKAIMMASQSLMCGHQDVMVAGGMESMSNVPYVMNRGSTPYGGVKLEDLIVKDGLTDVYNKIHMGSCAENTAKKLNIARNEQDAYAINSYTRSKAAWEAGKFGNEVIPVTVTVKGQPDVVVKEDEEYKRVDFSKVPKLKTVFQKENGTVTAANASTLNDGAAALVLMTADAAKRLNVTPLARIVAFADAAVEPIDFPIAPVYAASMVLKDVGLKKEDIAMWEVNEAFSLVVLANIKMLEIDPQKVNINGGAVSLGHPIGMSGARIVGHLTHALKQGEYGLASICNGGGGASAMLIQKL
# ACAT1 C126 (P24752) = molecular target: T2, ACAT1 C126 (P24752) (Homo sapiens, UniProt P24752); settings: for isoTOP-ABPP reactivity profile ratio, P24752_C126 / isoTOP-ABPP reactivity ratio, P24752_C126: 500 μm; for isoTOP-ABPP ratio, P24752_C126: 500 μM, invitro
# T2 sequence (P24752 34-427): T1 sequence (P24752 34-427)
# ERCC3 C342 (P19447) = molecular target: T3, ERCC3 C342 (P19447) (Homo sapiens, UniProt P19447); settings: for isoTOP-ABPP ratio P19447_C342: 500 μM, invitro, 231
# T3 sequence (P19447 1-782): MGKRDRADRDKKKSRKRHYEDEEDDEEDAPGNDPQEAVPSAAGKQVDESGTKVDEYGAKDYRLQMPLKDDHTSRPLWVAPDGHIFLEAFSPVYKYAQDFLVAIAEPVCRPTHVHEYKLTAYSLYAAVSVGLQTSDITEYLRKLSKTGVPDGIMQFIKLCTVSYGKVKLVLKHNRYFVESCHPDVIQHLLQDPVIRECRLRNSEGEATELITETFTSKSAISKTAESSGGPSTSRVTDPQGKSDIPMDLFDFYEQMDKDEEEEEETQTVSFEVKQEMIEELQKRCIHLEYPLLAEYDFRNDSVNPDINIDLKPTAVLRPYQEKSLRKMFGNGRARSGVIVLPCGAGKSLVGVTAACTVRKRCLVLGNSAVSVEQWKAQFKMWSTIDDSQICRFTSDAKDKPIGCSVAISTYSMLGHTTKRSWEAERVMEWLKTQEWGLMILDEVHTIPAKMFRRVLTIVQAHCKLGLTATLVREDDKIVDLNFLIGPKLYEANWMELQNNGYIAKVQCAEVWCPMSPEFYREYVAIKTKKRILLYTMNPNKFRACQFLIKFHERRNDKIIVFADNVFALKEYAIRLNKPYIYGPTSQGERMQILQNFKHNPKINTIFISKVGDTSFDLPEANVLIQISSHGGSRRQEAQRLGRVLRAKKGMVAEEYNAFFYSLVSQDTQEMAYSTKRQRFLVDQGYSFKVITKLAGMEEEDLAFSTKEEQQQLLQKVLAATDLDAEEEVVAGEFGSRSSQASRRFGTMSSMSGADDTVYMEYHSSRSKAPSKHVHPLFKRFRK
# Method: TEV digests were pressure loaded onto a 250 μm (inner diameter) fused silica capillary column packed with C18 resin (Aqua 5 μm, Phenomenex). The samples were analyzed by multidimensional liquid chromatography tandem mass spectrometry (MudPIT), using an LTQ-Velos Orbitrap mass spectrometer (Thermo Scientific) coupled to an Agilent 1200-series quaternary pump. […] One full MS (MS1) scan (400-1800 m/z) was followed by 30 MS2 scans (ITMS) of the nth most abundant ions.
# The ratios of heavy/light for each unique peptide (DMSO/compound treated; isoTOP-ABPP ratios, R values) were quantified with in-house CIMAGE software, using default parameters (3 ms s per peak and signal to noise threshold 2.5). Site-specific engagement of electrophilic fragments was assessed by blockade of IA-alkyne probe labeling. […] Ratios for unique peptide entries were calculated for each experiment; overlapping peptides with the same modified cysteine (e.g. different charge states, MudPIT chromatographic steps or tryptic termini) were grouped together and the median ratio was reported as the final ratio (R). The peptide ratios reported by CIMAGE were further filtered to ensure the removal or correction of low quality ratios in each individual dataset. The quality filters applied were the following: removal of half tryptic peptides; for ratios with high standard deviations from the median (90% of the median or above) the lowest ratio was taken instead of the median; removal of peptides with R=20 and only a single ms2 event triggered during the elution of the parent ion; manual annotation of all the peptides with ratios of 20, removing any peptides with low-quality elution profiles that remained after the previous curation steps. Proteome reactivity values for individual fragments were computed as the percentage of the total quantified cysteine-containing peptides with R values≥4 (defined as liganded cysteines) for each replicate experiment and the final proteome reactivity value was calculated as the mean for all replicate experiments for each fragment from both MDA-MB-231 and Ramos cellular proteomes.
# Biological replicates of the same compound and cell-line were averaged if the standard deviation was below 60% of the mean; otherwise the lowest value of the ratio set was taken. For peptides with multiple modified cysteines, the cysteine with the highest number of quantification events was kept and the remaining, redundant peptides were discarded. […] Although the majority (>75% of fragments) were profiled in at least two biological replicates, some data from single replicate MS experiments were included.
# MGMT C145 (P16455) = molecular target: T4, MGMT C145 (P16455) (Homo sapiens, UniProt P16455)
# T4 sequence (P16455 1-207): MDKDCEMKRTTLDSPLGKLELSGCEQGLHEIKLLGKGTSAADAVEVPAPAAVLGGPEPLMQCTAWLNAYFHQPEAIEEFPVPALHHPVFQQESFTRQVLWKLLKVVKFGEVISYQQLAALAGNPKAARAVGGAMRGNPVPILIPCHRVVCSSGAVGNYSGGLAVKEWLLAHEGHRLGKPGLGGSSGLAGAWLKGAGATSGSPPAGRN
smiles,measurement,setting,value
O=C(CCl)NC1C(O)OC(CO)C(O)C1O (mixture of isomers) [compound 44],"isoTOP-ABPP reactivity profile ratio, P24752_C196",ACAT1 C196 (P24752); in-vitro_ramos_231,0.8
same,"isoTOP-ABPP reactivity profile ratio, P24752_C126",ACAT1 C126 (P24752); in-vitro_ramos_231,0.8
O=C(CCl)N1CCN(S(=O)(=O)c2ccccc2F)CC1 [compound 10],"isoTOP-ABPP ratio, P24752_C196",ACAT1 C196 (P24752); 231,2.5
same,"isoTOP-ABPP ratio, P24752_C196",ACAT1 C196 (P24752); ramos,1.7
same,"isoTOP-ABPP ratio, P24752_C126",ACAT1 C126 (P24752); 231,3.2
same,"isoTOP-ABPP ratio, P24752_C126",ACAT1 C126 (P24752); ramos,1.5
same,isoTOP-ABPP ratio P19447_C342,ERCC3 C342 (P19447),3.0
O=C(CCl)NC(=O)NC12CC3CC(CC(C3)C1)C2 [compound 12],"isoTOP-ABPP ratio, P24752_C196",ACAT1 C196 (P24752); 231,1.2
same,"isoTOP-ABPP ratio, P24752_C196",ACAT1 C196 (P24752); ramos,0.9
same,"isoTOP-ABPP ratio, P24752_C126",ACAT1 C126 (P24752); 231,1.0
same,"isoTOP-ABPP ratio, P24752_C126",ACAT1 C126 (P24752); ramos,1.1
same,isoTOP-ABPP ratio P19447_C342,ERCC3 C342 (P19447),3.0
O=C(CCl)NC12CC3CC(CC(C3)C1)C2 [compound 21],"isoTOP-ABPP ratio (reactivity profile), P24752_C196",ACAT1 C196 (P24752); 500 μm in-vitro ramos,1.1
same,"isoTOP-ABPP ratio (reactivity profile), P24752_C196",ACAT1 C196 (P24752); 500 μm in-vitro ramos_231,1.0
same,"isoTOP-ABPP ratio (reactivity profile), P24752_C126",ACAT1 C126 (P24752); 500 μm in-vitro ramos,1.4
same,"isoTOP-ABPP ratio (reactivity profile), P24752_C126",ACAT1 C126 (P24752); 500 μm in-vitro ramos_231,1.2
same,"isoTOP-ABPP ratio (reactivity profile), P19447_C342",ERCC3 C342 (P19447); 500 μm in-vitro ramos_231,6.1
O=C(CCl)N1CCOCC1 [compound 22],"isoTOP-ABPP ratio (reactivity profile), P24752_C196",ACAT1 C196 (P24752); 500 μm in-vitro ramos,0.7
same,"isoTOP-ABPP ratio (reactivity profile), P24752_C196",ACAT1 C196 (P24752); 500 μm in-vitro ramos_231,1.4
same,"isoTOP-ABPP ratio (reactivity profile), P24752_C126",ACAT1 C126 (P24752); 500 μm in-vitro ramos,1.7
same,"isoTOP-ABPP ratio (reactivity profile), P24752_C126",ACAT1 C126 (P24752); 500 μm in-vitro ramos_231,2.4
O=C(/C=C/c1ccccc1)Nc1cc(C(F)(F)F)cc(C(F)(F)F)c1 [compound 26],"isoTOP-ABPP ratio (reactivity profile), P24752_C196",ACAT1 C196 (P24752); 500 μm in-vitro ramos,1.0
same,"isoTOP-ABPP ratio (reactivity profile), P24752_C126",ACAT1 C126 (P24752); 500 μm in-vitro ramos,0.9
COc1ccccc1OCCNC(=O)CCl [compound 28],"isoTOP-ABPP ratio (reactivity profile), P24752_C196",ACAT1 C196 (P24752); 500 μm in-vitro ramos,1.1
same,"isoTOP-ABPP ratio (reactivity profile), P24752_C196",ACAT1 C196 (P24752); 500 μm in-vitro ramos_231,1.0
same,"isoTOP-ABPP ratio (reactivity profile), P24752_C126",ACAT1 C126 (P24752); 500 μm in-vitro ramos,1.6
same,"isoTOP-ABPP ratio (reactivity profile), P24752_C126",ACAT1 C126 (P24752); 500 μm in-vitro ramos_231,1.7
same,"isoTOP-ABPP ratio (reactivity profile), P16455_C145",MGMT C145 (P16455); 500 μm in-vitro ramos,20.0
CCN(CC)c1ccc(S(N)(=O)=O)cc1NC(=O)CCl [compound 30],"isoTOP-ABPP ratio (reactivity profile), P24752_C196",ACAT1 C196 (P24752); 500 μm in-vitro ramos,0.8
same,"isoTOP-ABPP reactivity ratio, P24752_C196",ACAT1 C196 (P24752); in-vitro_ramos,1.1
same,"isoTOP-ABPP ratio (reactivity profile), P24752_C126",ACAT1 C126 (P24752); 500 μm in-vitro ramos,1.1
same,"isoTOP-ABPP reactivity ratio, P24752_C126",ACAT1 C126 (P24752); in-vitro_ramos,1.6
same,"isoTOP-ABPP ratio (reactivity profile), P19447_C342",ERCC3 C342 (P19447); 500 μm in-vitro ramos,1.3
C=CC(=O)N(Cc1cccnc1)c1cc(C(F)(F)F)cc(C(F)(F)F)c1 [compound 31],"isoTOP-ABPP reactivity ratio, P24752_C196",ACAT1 C196 (P24752); in-vitro_ramos,0.9
same,"isoTOP-ABPP reactivity ratio, P24752_C196",ACAT1 C196 (P24752); in-vitro_ramos_231,1.2
same,"isoTOP-ABPP reactivity ratio, P24752_C126",ACAT1 C126 (P24752); in-vitro_ramos_231,1.1
same,"isoTOP-ABPP reactivity ratio, P16455_C145","MGMT C145 (P16455); 500 μm, in-vitro_ramos",1.0
O=C(CCl)N(Cc1ccc(F)cc1)C12CC3CC(CC(C3)C1)C2 [compound 34],"isoTOP-ABPP reactivity ratio, P24752_C196",ACAT1 C196 (P24752); in-vitro_ramos,1.0
same,"isoTOP-ABPP reactivity ratio, P24752_C196",ACAT1 C196 (P24752); in-vitro_ramos_231,0.8
same,"isoTOP-ABPP reactivity ratio, P24752_C126",ACAT1 C126 (P24752); in-vitro_ramos,1.1
O=C(CCl)Nc1ccccc1C1CCCCCC1 [compound 35],"isoTOP-ABPP reactivity ratio, P24752_C196",ACAT1 C196 (P24752); in-vitro_ramos,1.4
same,"isoTOP-ABPP reactivity ratio, P24752_C196",ACAT1 C196 (P24752); in-vitro_ramos_231,0.9
same,"isoTOP-ABPP reactivity ratio, P24752_C126",ACAT1 C126 (P24752); in-vitro_ramos,10.4
C=CC(=O)N1CCC(c2noc3ccc(F)cc23)CC1 [compound 37],"isoTOP-ABPP reactivity ratio, P24752_C196",ACAT1 C196 (P24752); in-vitro_ramos,1.0
same,"isoTOP-ABPP reactivity ratio, P24752_C126",ACAT1 C126 (P24752); in-vitro_ramos,0.9
C=CC(=O)Nc1cc(F)c(N2CCN(C(=O)OC(C)(C)C)CC2)c(F)c1 [compound 38],"isoTOP-ABPP reactivity ratio, P24752_C196",ACAT1 C196 (P24752); in-vitro_ramos,1.3
same,"isoTOP-ABPP reactivity ratio, P24752_C196",ACAT1 C196 (P24752); in-vitro_ramos_231,1.0
same,"isoTOP-ABPP reactivity ratio, P24752_C126",ACAT1 C126 (P24752); in-vitro_ramos,1.4
same,"isoTOP-ABPP reactivity ratio, P24752_C126",ACAT1 C126 (P24752); in-vitro_ramos_231,1.0
same,"isoTOP-ABPP reactivity ratio, P19447_C342","ERCC3 C342 (P19447); 500 μm, in-vitro_ramos_231",1.3
C=CC(=O)Nc1cc(C)c(Br)cc1C [compound 40],"isoTOP-ABPP reactivity ratio, P24752_C196",ACAT1 C196 (P24752); in-vitro_ramos_231,0.8
same,"isoTOP-ABPP reactivity ratio, P24752_C126",ACAT1 C126 (P24752); in-vitro_ramos_231,0.9
same,"isoTOP-ABPP reactivity ratio, P16455_C145","MGMT C145 (P16455); 500 μm, in-vitro_ramos",1.0
CC1CCc2ccccc2N1C(=O)CCl (stereo not drawn) [compound 45],"isoTOP-ABPP reactivity profile ratio, P24752_C196",ACAT1 C196 (P24752); in-vitro_ramos_231,20.0
same,"isoTOP-ABPP reactivity profile ratio, P24752_C126",ACAT1 C126 (P24752); in-vitro_ramos_231,20.0
C=CC(=O)N(c1ccccc1)C1CCCCC1 [compound 46],"isoTOP-ABPP reactivity profile ratio, P24752_C196",ACAT1 C196 (P24752); in-vitro_ramos_231,0.9
same,"isoTOP-ABPP reactivity profile ratio, P24752_C126",ACAT1 C126 (P24752); in-vitro_ramos_231,0.9
same,"isoTOP-ABPP reactivity profile ratio, P19447_C342","ERCC3 C342 (P19447); 500 μm, in-vitro_ramos_231",1.0
O=C(CCl)N1CCc2cc(Br)ccc21 [compound 50],"isoTOP-ABPP reactivity profile ratio, P24752_C196",ACAT1 C196 (P24752); in-vitro_ramos_231,3.9
same,"isoTOP-ABPP reactivity profile ratio, P24752_C126",ACAT1 C126 (P24752); in-vitro_ramos_231,20.0
C=CC(=O)N1CCC(Cc2ccccc2)CC1 [compound 53],"isoTOP-ABPP reactivity profile ratio, P24752_C196",ACAT1 C196 (P24752); in-vitro_ramos,0.9
same,"isoTOP-ABPP reactivity profile ratio, P24752_C196",ACAT1 C196 (P24752); in-vitro_ramos_231,1.2
same,"isoTOP-ABPP reactivity profile ratio, P16455_C145","MGMT C145 (P16455); 500 μm, in-vitro_ramos",1.0
